US9750249B2, “Synergistic paraffinic oil and boscalid fungicides” (priority 2010, dated 2017)

System: dollar spot
Assay: Field trial: dollar spot counts on putting-green plots
Type: in vivo, Sclerotinia homoeocarpa
Conditions: Table 2a; combination even with half the recommended application rate of boscalid
Description: Studies were established in a completely randomized design with three replications. The treatments included an untreated (fertilizer only) treatment and twenty-three rate/interval combinations of Civitas™ and Emerald™. The label-recommended rates of Civitas™ application to control dollar spot on turfgrass are 8-32 oz/1000 sq.ft. The label-recommended rate of Emerald™ application to control dollar spot on turfgrass is 0.13 oz/1000 sq.ft.
Initial treatments were made on June 16 and continued for 15 weeks (final treatments were made on September 27). […]
Precipitation was such that supplemental irrigation was not required on a regular basis. […] Treatment differences at individual measurement events were evaluated using analysis of variance and Fisher's protected least significant difference (LSD). […]
Applying the approach to identifying synergy as set out in S. R. Colby, “Calculating synergistic and antagonistic responses of herbicide combinations”, Weeds 15, 20-22 (1967), expected efficacy, E, may be expressed as: E=X+Y(100−X)/100, where X is the efficacy, expressed in % of the untreated control, of the first composition (boscalid), and Y is the efficacy, expressed in % of the untreated control, of the second composition (Civitas).

O=C(Nc1ccccc1-c1ccc(Cl)cc1)c1cccnc1Cl [boscalid, 2-chloro-N-(4′-chloro[1,1′-biphenyl]-2-yl)-nicotinamide]
sustained elimination of dollar spot: neither boscalid alone nor CIVITAS alone are capable of sustained elimination of dollar spot
